{"source": "paper PMC11233931", "about": "“Remodeling tumor‐associated macrophage for anti‐cancer effects by rational design of irreversible inhibition of mitogen‐activated protein kinase‐activated protein kinase 2” (MedComm, 2024)", "test_in_all_cases": "Eurofins kinase selectivity profile against 380 other human recombinant kinases (Table S2)", "assay_type_in_all_cases": "biochemical", "key": {"[1]": {"biological_target": "T1, 380 human recombinant protein kinases (Homo sapiens, UniProt Q13546)", "T1 construct": "purchased Eurofins (Celle Lévescault)", "T1 sequence (Q13546 1-671)": "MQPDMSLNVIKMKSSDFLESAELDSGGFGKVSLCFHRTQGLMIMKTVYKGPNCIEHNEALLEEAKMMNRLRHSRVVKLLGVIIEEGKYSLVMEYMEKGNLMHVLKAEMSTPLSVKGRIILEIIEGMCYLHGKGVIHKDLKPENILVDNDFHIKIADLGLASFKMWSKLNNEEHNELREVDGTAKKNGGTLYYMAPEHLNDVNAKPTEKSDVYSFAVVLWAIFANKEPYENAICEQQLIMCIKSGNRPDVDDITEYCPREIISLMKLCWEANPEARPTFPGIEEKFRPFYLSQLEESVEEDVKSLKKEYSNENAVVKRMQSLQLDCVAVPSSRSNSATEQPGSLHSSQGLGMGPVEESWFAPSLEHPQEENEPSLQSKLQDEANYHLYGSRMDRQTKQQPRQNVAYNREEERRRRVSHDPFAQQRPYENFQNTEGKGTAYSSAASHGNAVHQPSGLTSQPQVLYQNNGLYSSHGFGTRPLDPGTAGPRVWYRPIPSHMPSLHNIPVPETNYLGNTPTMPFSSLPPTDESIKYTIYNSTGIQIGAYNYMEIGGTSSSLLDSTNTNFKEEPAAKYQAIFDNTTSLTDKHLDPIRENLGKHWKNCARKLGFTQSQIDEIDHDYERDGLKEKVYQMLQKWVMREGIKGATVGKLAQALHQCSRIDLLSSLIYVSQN", "settings": "RIPK1(h), read-out: Inhibition rate", "summary_of_the_method": "(§1)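 Values come from a contract kinase-profiling service that tested the compound at multiple concentrations across 380 recombinant human kinases, as an off-target check against the MK2 activity.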"}, "[2]": {"biological_target": "T2, 380 human recombinant protein kinases (Homo sapiens, UniProt Q5MAI5)", "T2 construct": "purchased Eurofins (Celle Lévescault)", "T2 sequence (Q5MAI5 whole entry)": "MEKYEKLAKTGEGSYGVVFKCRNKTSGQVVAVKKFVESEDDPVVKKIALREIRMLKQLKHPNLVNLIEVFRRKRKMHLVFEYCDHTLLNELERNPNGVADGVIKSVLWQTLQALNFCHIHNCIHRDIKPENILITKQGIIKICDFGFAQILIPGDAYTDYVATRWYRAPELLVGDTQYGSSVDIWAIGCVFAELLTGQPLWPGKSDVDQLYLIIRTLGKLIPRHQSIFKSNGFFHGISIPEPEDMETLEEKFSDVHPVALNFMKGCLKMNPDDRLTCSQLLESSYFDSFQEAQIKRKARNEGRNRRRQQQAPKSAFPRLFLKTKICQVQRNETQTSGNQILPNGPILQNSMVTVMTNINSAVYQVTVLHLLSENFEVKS", "settings": "CDKL4(h), read-out: Inhibition rate", "summary_of_the_method": "as §1"}, "[3]": {"biological_target": "T3, 380 human recombinant protein kinases (Homo sapiens, UniProt P08631)", "T3 construct": "purchased Eurofins (Celle Lévescault)", "T3 sequence (P08631 whole entry)": "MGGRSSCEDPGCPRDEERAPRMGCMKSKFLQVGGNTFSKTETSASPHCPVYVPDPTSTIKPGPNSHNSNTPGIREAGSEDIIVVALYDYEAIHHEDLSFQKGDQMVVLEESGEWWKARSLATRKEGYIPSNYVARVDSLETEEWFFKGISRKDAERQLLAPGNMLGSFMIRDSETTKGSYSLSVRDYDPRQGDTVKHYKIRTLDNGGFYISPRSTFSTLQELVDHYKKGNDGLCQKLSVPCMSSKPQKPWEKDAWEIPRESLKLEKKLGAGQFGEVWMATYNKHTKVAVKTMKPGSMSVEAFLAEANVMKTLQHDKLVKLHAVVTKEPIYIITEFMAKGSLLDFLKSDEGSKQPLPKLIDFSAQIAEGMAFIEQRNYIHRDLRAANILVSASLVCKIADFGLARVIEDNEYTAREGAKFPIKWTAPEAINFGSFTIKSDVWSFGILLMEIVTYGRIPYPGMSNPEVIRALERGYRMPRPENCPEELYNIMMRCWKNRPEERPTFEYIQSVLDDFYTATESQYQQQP", "settings": "Hck(h), read-out: Inhibition rate", "summary_of_the_method": "as §1"}, "[4]": {"biological_target": "T4, 380 human recombinant protein kinases (Homo sapiens, UniProt O43318)", "T4 construct": "purchased Eurofins (Celle Lévescault)", "T4 sequence (O43318 1-606)": "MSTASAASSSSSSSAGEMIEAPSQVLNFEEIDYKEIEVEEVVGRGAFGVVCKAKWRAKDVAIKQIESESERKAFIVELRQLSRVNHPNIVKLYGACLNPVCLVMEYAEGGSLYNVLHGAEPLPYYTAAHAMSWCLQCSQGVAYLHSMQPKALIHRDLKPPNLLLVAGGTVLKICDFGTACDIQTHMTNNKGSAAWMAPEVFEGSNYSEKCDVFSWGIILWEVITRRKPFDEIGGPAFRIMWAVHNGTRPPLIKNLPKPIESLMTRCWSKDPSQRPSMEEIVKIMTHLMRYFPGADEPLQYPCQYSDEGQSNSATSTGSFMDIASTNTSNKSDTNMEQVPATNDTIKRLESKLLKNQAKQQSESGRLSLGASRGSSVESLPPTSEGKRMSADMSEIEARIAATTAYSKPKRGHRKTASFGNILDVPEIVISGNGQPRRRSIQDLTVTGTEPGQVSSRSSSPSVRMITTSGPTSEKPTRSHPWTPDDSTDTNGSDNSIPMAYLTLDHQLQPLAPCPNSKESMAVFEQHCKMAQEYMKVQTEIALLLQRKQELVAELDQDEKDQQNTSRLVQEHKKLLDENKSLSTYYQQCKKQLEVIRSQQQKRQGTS", "settings": "TAK1(h), read-out: Inhibition rate (%)", "summary_of_the_method": "as §1"}, "[5]": {"biological_target": "T5, 380 human recombinant protein kinases (Homo sapiens, UniProt O14920)", "T5 construct": "purchased Eurofins (Celle Lévescault)", "T5 sequence (O14920 1-756)": "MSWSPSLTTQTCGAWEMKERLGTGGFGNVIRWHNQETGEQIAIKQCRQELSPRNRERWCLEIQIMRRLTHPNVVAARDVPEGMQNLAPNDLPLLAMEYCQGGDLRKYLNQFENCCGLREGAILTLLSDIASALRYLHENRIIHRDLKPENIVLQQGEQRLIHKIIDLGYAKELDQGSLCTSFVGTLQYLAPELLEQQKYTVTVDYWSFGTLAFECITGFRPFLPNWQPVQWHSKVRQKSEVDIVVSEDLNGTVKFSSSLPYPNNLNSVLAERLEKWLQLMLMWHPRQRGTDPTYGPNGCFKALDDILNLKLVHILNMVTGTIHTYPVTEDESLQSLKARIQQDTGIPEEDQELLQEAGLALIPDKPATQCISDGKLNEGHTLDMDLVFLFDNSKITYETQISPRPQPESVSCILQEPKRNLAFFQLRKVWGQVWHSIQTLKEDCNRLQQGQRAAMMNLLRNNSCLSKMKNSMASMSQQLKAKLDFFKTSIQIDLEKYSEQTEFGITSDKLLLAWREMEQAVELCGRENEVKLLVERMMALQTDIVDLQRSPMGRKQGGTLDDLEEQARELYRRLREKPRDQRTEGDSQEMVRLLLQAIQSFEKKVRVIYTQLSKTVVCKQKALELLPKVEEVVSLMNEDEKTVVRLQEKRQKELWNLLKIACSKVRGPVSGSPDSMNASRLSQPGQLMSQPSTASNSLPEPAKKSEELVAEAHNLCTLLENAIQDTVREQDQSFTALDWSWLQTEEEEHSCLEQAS", "settings": "IKKβ(h), read-out: Inhibition rate", "summary_of_the_method": "as §1"}, "[6]": {"biological_target": "T6, 380 human recombinant protein kinases (Homo sapiens, UniProt Q16654)", "T6 construct": "purchased Eurofins (Celle Lévescault)", "T6 sequence (Q16654 whole entry)": "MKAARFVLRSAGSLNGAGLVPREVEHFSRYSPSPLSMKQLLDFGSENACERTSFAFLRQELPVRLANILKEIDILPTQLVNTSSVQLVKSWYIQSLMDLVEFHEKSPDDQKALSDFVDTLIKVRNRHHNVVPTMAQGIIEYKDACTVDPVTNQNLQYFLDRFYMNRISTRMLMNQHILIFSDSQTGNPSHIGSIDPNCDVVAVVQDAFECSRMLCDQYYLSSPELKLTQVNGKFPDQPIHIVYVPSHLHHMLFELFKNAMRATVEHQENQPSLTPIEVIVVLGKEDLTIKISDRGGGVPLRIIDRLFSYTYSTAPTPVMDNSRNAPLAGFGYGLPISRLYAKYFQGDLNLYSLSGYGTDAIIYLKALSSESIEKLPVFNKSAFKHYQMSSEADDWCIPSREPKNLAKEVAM", "settings": "PDHK4(h), read-out: Inhibition rate", "summary_of_the_method": "as §1"}, "[7]": {"biological_target": "T7, 380 human recombinant protein kinases (Homo sapiens, UniProt P51812)", "T7 construct": "purchased Eurofins (Celle Lévescault)", "T7 sequence (P51812 whole entry)": "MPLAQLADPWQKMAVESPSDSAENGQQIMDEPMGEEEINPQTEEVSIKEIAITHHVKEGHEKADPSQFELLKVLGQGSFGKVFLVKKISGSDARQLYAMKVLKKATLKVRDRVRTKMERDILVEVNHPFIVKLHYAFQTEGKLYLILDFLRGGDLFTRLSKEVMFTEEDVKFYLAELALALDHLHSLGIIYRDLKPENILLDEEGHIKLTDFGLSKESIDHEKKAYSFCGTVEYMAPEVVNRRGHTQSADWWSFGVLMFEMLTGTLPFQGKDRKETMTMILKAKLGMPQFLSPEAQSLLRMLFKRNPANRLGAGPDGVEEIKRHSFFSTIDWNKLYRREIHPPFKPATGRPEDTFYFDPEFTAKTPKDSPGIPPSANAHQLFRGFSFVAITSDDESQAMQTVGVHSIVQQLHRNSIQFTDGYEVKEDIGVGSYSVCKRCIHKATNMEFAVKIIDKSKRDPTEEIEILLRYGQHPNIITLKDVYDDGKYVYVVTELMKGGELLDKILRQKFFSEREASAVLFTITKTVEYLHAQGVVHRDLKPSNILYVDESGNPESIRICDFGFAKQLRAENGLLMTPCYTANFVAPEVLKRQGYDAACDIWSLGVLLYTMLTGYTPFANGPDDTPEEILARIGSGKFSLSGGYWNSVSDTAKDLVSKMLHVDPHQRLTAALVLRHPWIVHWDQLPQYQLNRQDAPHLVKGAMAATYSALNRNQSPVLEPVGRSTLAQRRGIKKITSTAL", "settings": "Rsk2(h), read-out: Inhibition rate (%)", "summary_of_the_method": "as §1"}}, "data": [{"smiles": "C=CC(=O)Nc1cc(-c2cc(-c3cc4c([nH]3)CCNC4=O)ccn2)ccc1OC(F)(F)F", "note": "[compound 11]", "values": [{"measurement": "inhibition at 0.01 µM", "setting": "[1]; 10 nM", "value": -7, "unit": "%"}, {"measurement": "inhibition at 0.1 µM", "setting": "[1]; 100 nM", "value": -3, "unit": "%"}, {"measurement": "inhibition at 1 µM", "setting": "[1]; 1000 nM", "value": 3, "unit": "%"}, {"measurement": "inhibition at 0.01 µM", "setting": "[2]; 10 nM", "value": 50, "unit": "%"}, {"measurement": "inhibition at 0.1 µM", "setting": "[2]; 100 nM", "value": 83, "unit": "%"}, {"measurement": "inhibition at 1 µM", "setting": "[2]; 1000 nM", "value": 93, "unit": "%"}, {"measurement": "inhibition at 0.01 µM", "setting": "[3]; 10 nM", "value": -3, "unit": "%"}, {"measurement": "inhibition at 0.1 µM", "setting": "[3]; 100 nM", "value": -7, "unit": "%"}, {"measurement": "inhibition at 1 µM", "setting": "[3]; 1000 nM", "value": 4, "unit": "%"}, {"measurement": "inhibition at 0.01 µM", "setting": "[4]; 10 nM", "value": 9, "unit": "%"}, {"measurement": "inhibition at 0.1 µM", "setting": "[4]; 100 nM", "value": 2, "unit": "%"}, {"measurement": "inhibition at 1 µM", "setting": "[4]; 1000 nM", "value": 47, "unit": "%"}, {"measurement": "inhibition at 0.01 µM", "setting": "[5]; 10 nM", "value": -15, "unit": "%"}, {"measurement": "inhibition at 0.1 µM", "setting": "[5]; 100 nM", "value": -12, "unit": "%"}, {"measurement": "inhibition at 1 µM", "setting": "[5]; 1000 nM", "value": -12, "unit": "%"}, {"measurement": "inhibition at 0.01 µM", "setting": "[6]; 10 nM", "value": -5, "unit": "%"}, {"measurement": "inhibition at 0.1 µM", "setting": "[6]; 100 nM", "value": -7, "unit": "%"}, {"measurement": "inhibition at 1 µM", "setting": "[6]; 1000 nM", "value": -19, "unit": "%"}, {"measurement": "inhibition at 0.01 µM", "setting": "[7]; 10 nM", "value": -6, "unit": "%"}, {"measurement": "inhibition at 0.1 µM", "setting": "[7]; 100 nM", "value": -11, "unit": "%"}, {"measurement": "inhibition at 1 µM", "setting": "[7]; 1000 nM", "value": -3, "unit": "%"}]}]}
